Values of other authors, collected in publication PMC2862725 (Molecular cancer therapeutics, 2009).
Read-outs that look alike come from different tables or passages of the source.

What was measured:
[1] = vIII mutant tumor group; set equal to single-dose PK/PD model ref 9
[2] = n = 5, two patients with malignant gliomas
[3] = wild-type tumor group; set equal to single-dose PK/PD model ref 9

SMILES: COc1cc2ncnc(Nc3ccc(F)c(Cl)c3)c2cc1OCCCN1CCOCC1 [gefitinib, Gefitinib]
- Vc volume of distribution of the central compartment [1]: 103.8 mL
- gefitinib brain tumor concentration, mean [2]: 9.4 ± 9.3 µg/g
- Vc volume of distribution of the central compartment [3]: 75.0 mL
